Measurements taken from patent publication US20140179681A1, “METHODS AND COMPOSITIONS OF TARGETED DRUG DEVELOPMENT” (priority 2010, published 2014).
Counter-ions that a name gives are not always drawn. Like-named read-outs stand apart in the source and are kept apart here.

Assays:
[1] = tested on: MDBK line; test: MTT Cell Proliferation Assay, MDBK cells; format: cell-based, bovine
Procedure, shortened: (§1)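 Viability was measured by mitochondrial MTT reduction after cells were exposed to compound for 3 days in reduced-serum medium. Inhibition was calculated per plate against 0.5% DMSO controls.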

[2] = tested on: epithelial carcinoma A431 cell line; test: MTT Cell Proliferation Assay, A431 cells; format: cell-based; details: for MTT Assay IC50(A431/MDBK): ratio in parentheses: ratio MDBK IC50 / A431 IC50 (selectivity)
Procedure, shortened: as §1

[3] = biological target: T1, EGFR (Homo sapiens, UniProt P00533); test: EGFR in-cell Western (ICW) screening protocol (EGFR inhibition assay); format: cell-based; parameters: ICW 1 / ICW 2 / ICW Avg: unit not given here; details: for ICW Avg / ICW 1 / ICW 2: ICW assay; for ICW Avg: average of runs 1 and 2; for ICW 1: run 1; for ICW 2: run 2
T1 construct: host or cells: A431
Procedure, shortened: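 Serum-starved A431 cells (2 h) were pretreated with compound for 4 h at 37° C, then stimulated with EGF (10 ng/ml final, or 6.6 or 12.5 ng/ml in some runs) for 10 min. After formaldehyde fixation, phospho-EGFR (Tyr1173, or Tyr1045 in some runs) and total EGFR were detected by in-cell Western immunostaining.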

[4] = Bos taurus, MDBK, MDBK cells, second value of cell, read-out: MTT Assay IC50(A431/MDBK): MDBK
[5] = Homo sapiens, A-431, A431 cells, first value of cell, read-out: MTT Assay IC50(A431/MDBK): A431
[6] = Bos taurus, MDBK, second value of 'a/b (c)', taken as MDBK cells, read-out: MTT Screen, second value of cell
[7] = Homo sapiens, A-431, first value of 'a/b (c)', taken as A431 cells, read-out: MTT Screen, first value of cell
[8] = MDBK cells, second value of cell, read-out: MTT Assay IC50(A431/MDBK): MDBK
[9] = A431 cells, first value of cell, read-out: MTT Assay IC50(A431/MDBK): A431

T1 sequence (P00533 25-1210): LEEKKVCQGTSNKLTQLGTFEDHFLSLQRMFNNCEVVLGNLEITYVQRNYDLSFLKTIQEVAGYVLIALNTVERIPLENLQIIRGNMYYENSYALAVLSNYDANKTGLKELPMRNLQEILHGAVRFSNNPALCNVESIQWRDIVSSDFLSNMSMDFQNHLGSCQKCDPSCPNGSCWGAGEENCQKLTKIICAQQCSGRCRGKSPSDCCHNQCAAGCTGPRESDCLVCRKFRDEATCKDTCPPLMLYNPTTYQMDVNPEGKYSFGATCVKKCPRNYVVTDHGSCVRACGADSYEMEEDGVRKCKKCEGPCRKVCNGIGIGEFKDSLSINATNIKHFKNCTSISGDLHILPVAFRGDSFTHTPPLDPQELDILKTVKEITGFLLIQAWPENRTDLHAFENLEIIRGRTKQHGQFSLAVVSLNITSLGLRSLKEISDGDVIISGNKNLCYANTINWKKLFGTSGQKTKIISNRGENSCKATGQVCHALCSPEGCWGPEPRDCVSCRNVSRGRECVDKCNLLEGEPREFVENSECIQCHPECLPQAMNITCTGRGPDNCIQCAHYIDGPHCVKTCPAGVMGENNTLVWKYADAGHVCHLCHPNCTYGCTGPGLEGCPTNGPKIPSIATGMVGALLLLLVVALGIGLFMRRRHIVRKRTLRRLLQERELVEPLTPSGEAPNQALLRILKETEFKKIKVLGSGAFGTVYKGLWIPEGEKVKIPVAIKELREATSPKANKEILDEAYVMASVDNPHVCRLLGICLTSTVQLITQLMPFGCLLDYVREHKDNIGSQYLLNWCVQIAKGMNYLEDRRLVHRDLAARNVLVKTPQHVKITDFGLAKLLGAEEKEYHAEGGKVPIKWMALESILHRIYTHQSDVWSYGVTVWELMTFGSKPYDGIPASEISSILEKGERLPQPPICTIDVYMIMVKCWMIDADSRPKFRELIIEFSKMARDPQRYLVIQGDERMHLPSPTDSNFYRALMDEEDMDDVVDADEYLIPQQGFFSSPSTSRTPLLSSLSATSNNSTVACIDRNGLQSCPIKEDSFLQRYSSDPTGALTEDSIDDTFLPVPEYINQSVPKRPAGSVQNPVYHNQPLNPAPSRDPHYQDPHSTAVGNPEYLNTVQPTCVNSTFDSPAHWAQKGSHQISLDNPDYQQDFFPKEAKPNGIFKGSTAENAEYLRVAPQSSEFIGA

SMILES	IC50 [1, 4]	IC50 [2, 5]	MTT Assay IC50(A431/MDBK): ratio in parentheses [2]	ICW Avg [3]	ICW 1 [3]	ICW 2 [3]	IC50 [2, 7]	ICW Screen (ICW Inhibition) [3]	other results
Cc1ccc2c(C)nc(Nc3nc(C)c(CCC(C)C)c(=O)[nH]3)nc2c1 [11712 + TFA]	17.3 µM	18.7 µM	0.92	39.53	32.96	46.11			
Cc1ccc(NS(=O)(=O)c2ccc(NC(=S)NC(=O)C3CCCCC3)cc2)cc1C [AD4-10708]							16.6 µM	37.233	IC50 [1, 6]: 35.9 µM
Cc1ccc2nc(Nc3nc(C)cc(C(F)(F)F)n3)nc(C)c2c1 [11816 + TFA]	28.1 µM	14.2 µM	1.99	26.67	39.76	13.58			
CCCCc1c(C)nc(Nc2nc(C)c3ccc(C)cc3n2)[nH]c1=O [12776 + TFA]	19 µM	29.7 µM	0.64	25.32	21.34	29.30			
COc1ccc(-c2cc(=O)[nH]c(Nc3nc(C)c4ccc(C)cc4n3)n2)cc1OC [11800 + TFA]	5.86 µM	6.71 µM	0.87	33.14	34.26	32.02			
CC1CCN(S(=O)(=O)c2ccc(NC(=S)NC(=O)C3CC3)cc2)CC1 [AD4-12286]							15.5 µM	26.829	IC50 [1, 6]: 29.9 µM
FC(F)(F)c1cc(C(F)(F)F)nc(Nc2nc(-c3ccccc3)c3cc(Cl)ccc3n2)n1 [compound 11449]	5.4 µM	6.41 µM	0.84	37.11	48.00	26.22			
Cc1cc(C)nc(Nc2nc(-c3ccccc3)c3ccc(Cl)cc3n2)n1 [compound 11636]		26.8 µM		62.56	61.28	63.84			IC50 [1, 8]: 14.7 µM
COc1cc(NS(=O)(=O)c2ccc(NC(=S)NC(=O)/C=C/c3ccccc3)cc2)nc(OC)n1 [AD4-11369]							48.6 µM	43.546	IC50 ([1]; second value of 'a/b (c)', taken as MDBK cells, read-out: MTT Screen, second value of cell): 47.2 µM
COc1cccc2c(C)nc(Nc3nc(-c4ccc(F)cc4)cc(=O)[nH]3)nc12 [compound 12620]			1.03	33.01	32.26	33.77			IC50 [1, 8]: 5.3 µM; IC50 [2, 9]: 5.17 µM
Cc1nc(Nc2nc(=O)cc(CSc3ccc(Cl)cc3)[nH]2)nc2ccccc12 [11445 + TFA]	45.1 µM		4.70	60.28	59.54	61.02			IC50 [2, 9]: 9.61 µM
CC1CCN(S(=O)(=O)c2ccc(NC(=S)NC(=O)C(C)C)cc2)CC1 [AD4-11977]							32.5 µM	33.588	MTT Screen, second value of cell ([1]; second value of 'a/b (c)', taken as MDBK cells): non- conver- gent
CC1CCC(S(=O)(=O)c2ccc(NC(=S)NC(=O)C3CC3)cc2)CC1 (centres unmarked) [AD4-12146]							26.6 µM	40.916	IC50 [1, 6]: 25.8 µM
CCc1cc2c(CN3CCN(Cc4ccccc4)CC3)cc(=O)oc2cc1O [AD4-10631]									IC50 ([1]; Table 11, second of x/y(ratio): MDBK, unit not printed (doses in μM), read-out: MTT Screen (second value)): 37.5 µM; IC50 ([2]; Table 11, first of x/y(ratio): A431, unit not printed (doses in μM), read-out: MTT Screen (first value)): 35.6 µM; ICW Screen ([3]; Table 11, % Inhibition of EGF dependent EGFR phosphorylation in A431 cells, compound 125 μM in assay): 104.48
Cc1ccc(SCc2cc(=O)[nH]c(Nc3nc(C)c4cc(C)cc(C)c4n3)n2)cc1 [11727 + TFA]	16.1 µM	35.1 µM	0.46	31.05	37.00	25.09			
CC(C)(C)C(=O)NC(=S)Nc1ccc(S(=O)(=O)NCCc2ccccc2)cc1 [AD4-10613]							13.9 µM	35.514	IC50 [1, 6]: 11.8 µM
CC1CCc2cc(F)ccc2N1S(=O)(=O)c1ccc(NC(=S)Nc2ccc(Br)cc2)cc1 (centres unmarked) [AD4-12813]									IC50 ([1]; Bos taurus, MDBK, 72 h, Table 10, second of x/y(ratio): MDBK, three day treatment, unit not printed (doses in μM), read-out: MTT assay (second value)): 13.6 µM; IC50 ([2]; Homo sapiens, A-431, 72 h, Table 10, first of x/y(ratio): A431, three day treatment, unit not printed (doses in μM), read-out: MTT assay (first value)): 11.8 µM; ICW assay ([3]; Table 10, % Inhibition of EGF dependent EGFR phosphorylation in A431 cells, compound 125 μM in assay): 26.1431
